In patent publication US20250092065A1, “2-(INDAZOL-5-YL)-6-(PIPERIDIN-4-YL)-1,7-NAPHTHYRIDINE DERIVATIVES AND RELATED COMPOUNDS AS MODULATORS FOR SPLICING NUCLEIC ACIDS AND FOR THE TREATMENT OF PROLIFERATIVE DISEASES” (REMIX THERAPEUTICS INC., priority 2022, published 2025):
Where a name gives a salt, the structure may show the parent alone. Read-outs that look alike come from different tables or passages of the source.

Assays:
Assay type in all cases: cell-based, human
MYB mRNA = experiment: RT-qPCR splicing assay, MYB mRNA canonical (CJ) and alternative (AJ) junction; conditions: Homo sapiens; for AC50: MYB alternative junction mRNA, read-out: MYB AJ (increase in AJ mRNA, AC50)
How it was run: (§1)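 Junction-specific RT-qPCR read-out: CJ and AJ isoform levels, housekeeper-normalized (GAPDH/GUSB/PPIA), ΔΔCt vs DMSO, converted to RQ then % response. Cells: A673 (DMEM/10% FBS, adhered 24 h) or K562 (IMDM/10% FBS). Compound 11-pt 3-fold, top 10 uM, 24 h, 37 °C.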

SMN2 mRNA = experiment: RT-qPCR splicing assay, SMN2 mRNA; conditions: Homo sapiens, canonical junction qPCR panel, Table 4; read-out: SMN2 IC50 (decrease in CJ mRNA levels)
How it was run: as §1

HTT mRNA = experiment: RT-qPCR splicing assay, HTT mRNA canonical (CJ) and alternative (AJ) junction; conditions: Homo sapiens; for AC50: HTT alternative junction mRNA, read-out: HTT AJ (increase in AJ mRNA, AC50)
How it was run: as §1

MYB = experiment: HiBiT protein abundance assay, MYB (K562 HiBiT knock-in); conditions: HiBiT knock-in K562 cells, 24 hours, top dose 10 μM
How it was run: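 Luminescence readout: Nano-Glo HiBiT lytic detection after 24 h compound exposure of K562 HiBiT knock-in cells, 10000 cells/well. Dosing 10-pt, 3-fold, top 10 μM final. % response vs untreated parental K562 and DMSO controls; 4PL fit, IC50 = concentration giving 50% protein abundance.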

[1] = MYB canonical junction mRNA, RT-qPCR, read-out: MYB CJ (decrease in CJ mRNA levels, IC50)
[2] = canonical junction qPCR panel, Table 4, read-out: MYB IC50 (decrease in CJ mRNA levels)
[3] = HTT canonical junction mRNA, RT-qPCR, read-out: HTT CJ (decrease in CJ mRNA levels, IC50)
[4] = canonical junction qPCR panel, Table 4, read-out: HTT IC50 (decrease in CJ mRNA levels)

IC50 (MYB mRNA; [1]) [nM]	IC50 (MYB mRNA; [2]) [nM]	IC50 (SMN2 mRNA) [nM]	IC50 (HTT mRNA; [3]) [nM]	IC50 (HTT mRNA; [4]) [nM]	IC50 (MYB) [nM]	Compound	AC50 (MYB mRNA; RT-qPCR) [nM]	AC50 (HTT mRNA; RT-qPCR) [nM]
100 to 1000	100 to 1000	< 100	< 100	< 100	100 to 1000	Cc1nc2c(C)c(O)c(-c3ccc4nc(N5CC[C@H](NC6CC6)C5)ncc4n3)cc2o1 [Compound 433, 6-{2-[(3S)-3-(cyclopropylamino)pyrrolidin-1-yl]pyrido[3,2-d]pyrimidin-6-yl}-2,4-dimethyl-1,3-benzoxazol-5-ol]	100 to 1000	< 100
100 to 1000	100 to 1000	< 100	100 to 1000	100 to 1000	100 to 1000	Cc1nc2cc(O)c(-c3ccc4nc(N5CC[C@H](NC6CC6)C5)ncc4n3)cc2o1 [Compound 435, 6-{2-[(3S)-3-(cyclopropylamino)pyrrolidin-1-yl]pyrido[3,2-d]pyrimidin-6-yl}-2-methyl-1,3-benzoxazol-5-ol]	100 to 1000	100 to 1000
< 100	< 100	< 100	< 100	< 100	< 100	Cc1nc2c(C)c(O)c(-c3ccc4nc(N5CC[C@@H](NC(C)(C)C)C5)ncc4n3)cc2o1 [Compound 436]	< 100	< 100
100 to 1000	100 to 1000	100 to 1000	< 100	< 100	100 to 1000	Cc1nc2c(C)c(O)c(-c3ccc4nc(N5CC[C@H](NC(C)(C)C)C5)ncc4n3)cc2o1 [Compound 437]	100 to 1000	< 100
100 to 1000	100 to 1000	< 100	< 100	< 100	100 to 1000	Cc1c(O)c(-c2ccc3nc(N4CC[C@@H](NC5CC5)C4)ncc3n2)cc2cn(C)nc12 [Compound 438, 5-{2-[(3R)-3-(cyclopropylamino)pyrrolidin-1-yl]pyrido[3,2-d]pyrimidin-6-yl}-2,7-dimethylindazol-6-ol]	< 100	< 100
100 to 1000	100 to 1000	< 100	< 100	< 100	100 to 1000	Cc1c(O)c(-c2ccc3nc(N4CC[C@H](NC5CC5)C4)ncc3n2)cc2cn(C)nc12 [Compound 439, 5-{2-[(3S)-3-(cyclopropylamino)pyrrolidin-1-yl]pyrido[3,2-d]pyrimidin-6-yl}-2,7-dimethylindazol-6-ol]	100 to 1000	< 100
100 to 1000	100 to 1000	< 100	< 100	< 100	100 to 1000	Cc1nc2c(C)c(O)c(-c3ccc4cc(N5CC[C@@H](NC6CC6)C5)ncc4n3)cc2o1 [Compound 440, 6-{6-[(3R)-3-(cyclopropylamino)pyrrolidin-1-yl]-1,7-naphthyridin-2-yl}-2,4-dimethyl-1,3-benzoxazol-5-ol]	100 to 1000	100 to 1000
100 to 1000	100 to 1000	< 100	< 100	< 100	1000 to 10000	Cc1nc2c(C)c(O)c(-c3ccc4cc(N5CC[C@H](NC6CC6)C5)ncc4n3)cc2o1 [Compound 441, 6-{6-[(3S)-3-(cyclopropylamino)pyrrolidin-1-yl]-1,7-naphthyridin-2-yl}-2,4-dimethyl-1,3-benzoxazol-5-ol]	100 to 1000	100 to 1000
100 to 1000	100 to 1000	< 100	1000 to 10000	1000 to 10000	100 to 1000	Cn1cc2cc(-c3ccc4cc(N5CCC(NC(C)(C)C)C5)ncc4n3)c(O)cc2n1 (stereo not shown) [Compound 449, 5-{6-[3-(tert-butylamino)pyrrolidin-1-yl]-1,7-naphthyridin-2-yl}-2-methylindazol-6-ol]	100 to 1000	1000 to 10000
1000 to 10000	1000 to 10000	1000 to 10000	1000 to 10000	1000 to 10000	1000 to 10000	Cc1nc2cc(O)c(-c3ccc4cc(N5CC[C@H](NC(C)(C)C)C5)ncc4n3)cc2o1 [Compound 450]	1000 to 10000	1000 to 10000
< 100	< 100	< 100	< 100	< 100	< 100	Cc1c(O)c(-c2cc(Cl)c3cc(N4CCNCC4)cc(C)c3n2)cc2cn(C)nc12 [Compound 482, 5-[4-chloro-8-methyl-6-(piperazin-1-yl)577yrrolidi-2-yl]-2,7-dimethylindazol-6-ol hydrochloride]	< 100	100 to 1000
100 to 1000	100 to 1000	< 100	> 10000	> 10000	100 to 1000	Cc1cc2nc(-c3cc4cn(C)nc4c(C)c3O)cc(Cl)c2cc1N1CCNCC1 [Compound 484, 5-[4-chloro-7-methyl-6-(piperazin-1-yl)586yrrolidi-2-yl]-2,7-dimethylindazol-6-ol]	100 to 1000	> 10000
100 to 1000	100 to 1000	< 100	1000 to 10000	1000 to 10000	100 to 1000	CNC1CCN(c2cc3c(Cl)cc(-c4cc5cn(C)nc5c(C)c4O)nc3cc2C)C1 (stereo not shown) [Compound 486, 5-{4-chloro-7-methyl-6-[3-(methylamino)pyrrolidin-1-yl]quinolin-2-yl}-2,7-dimethylindazol-6-ol]	100 to 1000	1000 to 10000

Compound	IC50 (MYB mRNA; [1]) [nM]	IC50 (MYB mRNA; [2]) [nM]	IC50 (SMN2 mRNA) [nM]	IC50 (HTT mRNA; [3]) [nM]	IC50 (HTT mRNA; [4]) [nM]	IC50 (MYB) [nM]	AC50 (MYB mRNA; RT-qPCR) [nM]	AC50 (HTT mRNA; RT-qPCR) [nM]
Cn1cc2cc(-c3ccc4nc(C5CCNC6(CC6)C5)ncc4n3)c(O)cc2n1 (stereo not shown) [Compound 448, 5-(2-{4-azaspiro[2.5]octan-7-yl}pyrido[3,2-d]pyrimidin-6-yl)-2-methylindazol-6-ol]	100 to 1000	100 to 1000	< 100	100 to 1000	100 to 1000	100 to 1000	1000 to 10000	1000 to 10000
